Measurements reported in patent US7109174B2, “Anticonvulsant derivatives useful for preventing the development of type II diabetes mellitus and syndrome X” (Ortho-McNeil Pharmaceutical, Inc., priority 2000, dated 2006).

How the values were obtained:
[1] = system: db/db mice (Homozygous Diabetic Mice); assay: Plasma glucose, triglycerides and body weight in female diabetic db/db mice, 11 days oral dosage; format: in vivo; details: for Plasma Glucose % Change / Plasma Triglycerides % Change / Change in Body Weight / Plasma Triglycerides Plasma Conc. / Plasma Glucose Plasma Conc.: 11 days; for Plasma Glucose % Change / Plasma Triglycerides % Change: versus vehicle; for Change in Body Weight / Plasma Triglycerides Plasma Conc. / Plasma Glucose Plasma Conc.: ± SEM
Procedure: Six to seven week old female C57 BLK SIJ-m^+/^+ Lepr^db mice (db/db) and heterozygous littermates were purchased from The Jackson Laboratory (Bar Harbor, Me.). Upon arrival the mice were quarantined for 5 days and housed in pairs in shoe-box cages containing ALPHA-dri® bedding (Shepherd Speciality Papers, Inc., Kalamazoo, Mich.). The mice were maintained at an ambient temperature of 21 to 23° C. on a 12 hour-12 hour light-dark schedule and given access to water and food ad libitum. The diet was comprised of NIH (National Institutes of Health) Rat and Mouse/Auto 6F Reduced Fat Diet No. 5K52 (PMI Nutrition International Inc., Brentwood, Mo.).
The vehicle, used as a reference and for test compounds, was 0.5% methylcellulose dissolved in water. The compounds were either fully dissolved or uniformly suspended in the vehicle when administered to the mice.
The db/db mice were randomly separated into five groups of eight, as were the heterozygous littermates. The groups were as follows: one vehicle control group and four groups that each received one of four doses of topiramate (TPM) (10, 30, 100, or 300 mg/kg, respectively). Topiramate or vehicle was administered orally by gavage once a day during the 8th hour of the light portion of the light-dark cycle.
Between 18 and 24 hours after the last dose was administered, the mice were anesthetized with CO2/O2 (70:30) and blood from the retro-orbital sinus puncture was collected into 2 mL heparinized snap-top polypropylene tubes, then placed in ice.
Plasma was separated from blood cells by centrifugation (15 minutes at 1600 g). For samples not assayed immediately, the plasma was transferred into 96-well plates and frozen at −70° C.
Glucose and triglycerides were assayed using standard procedures for blood clinical laboratories. Specifically, the samples were analyzed using an automated Hitachi 717 autoanalyzer (Boehringer Mannheim/Hitachi 717 Autoanalyzer, Boehringer Mannheim Laboratory Systems Division, Indianapolis, Ind.). A statistical analysis of data for the drug-treated groups compared to data for the vehicle group was performed using the one-way analysis of variance (ANOVA) with Dunnett's Multiple Comparisons test.
Following the procedure described above, the effect of topiramate on plasma glucose and triglyceride levels was determined for female diabetic db/db mice and littermates, following 11 days oral dosage, with results as listed in Table 3 and 4. Body weights are in Table 5. The abbreviation N represents the number of animals per study group.

[2] = system: male Zucker diabetic fatty (ZDF/Gmi-Fa) rats; assay: Plasma glucose, triglycerides and body weight change in male Zucker diabetic fatty rats, orally dosed for 14 days; format: in vivo; details: for Body Weight Change / Plasma Glucose Levels Plasma Conc. / Plasma Triglyceride Levels Plasma Conc.: ± sem
Procedure: Six week old male Zucker diabetic fatty (ZDF/Gmi-Fa) rats were purchased from Genetic Models, Inc. Indianapolis, Ind. The rats were housed in groups of four in hanging metal cages, at an ambient temperature of 68–72° F., on a 12 hour-12 hour light-dark schedule and given access to water and food ad libitum. Lean rats (ZDF/GMI−+/+or +/fa) were used as normal, non-diabetic controls. The diet was comprised of LabDiet 5008 breeding formula (PMI Nutrition Int'l, Brentwood, Mo.). The vehicle, used as a reference and for test compounds, was 0.5% methylcellulose dissolved in water. The compounds were either fully dissolved or uniformly suspended in the vehicle when administered to the […]. The rats were randomly separated into four groups of eight. The groups were as follows: one vehicle control group and three groups that each received one of three doses of TPM (30, 100, or 300 mg/kg, respectively). Topiramate or vehicle was administered orally by gavage once a day, for 14 consecutive days, during the 8th hour of the light portion of the light-dark cycle. At the start of the study, the rats were bled through a tail vein and plasma glucose and triglyceride levels were determined. Between 18 and 24 hours after the last dose was administered, blood samples were again taken via tail clip on day 1 (fed animals) and day 14 (fed animals). The plasma was collected into 2 mL heparinized snap-top polypropylene tubes, then placed in ice. Plasma was separated from blood cells by centrifugation (20 minutes at 1800 g). For samples not assayed immediately, the plasma was transferred into 96-well plates and frozen at −70° C. Body weights for the animals were determined at the start of the study and again after 14 days oral dosing. Glucose and triglycerides were assayed using standard procedures for blood clinical laboratories. Specifically, the samples were analyzed using an automated Hitachi 717 autoanalyzer (Boehringer Mannheim/Hitachi 717 Autoanalyzer, Boehringer Mannheim Laboratory Systems Division, Indianapolis, Ind.). A statistical analysis of data for the drug-treated groups compared to data for the vehicle group was performed using the one-way analysis of variance (ANOVA) with Dunnett's Multiple Comparisons test. Following the procedure described above, the effect of topiramate on plasma glucose, triglyceride levels and body weight changes was determined for male Zucker rats, orally dosed for 14 days, with results as listed in Table 6–8. The abbreviation N represents the number of animals per study group.

human epilepsy = details: clinical trials; cited from earlier work
[3] = system: animal model of kindled epilepsy; details: cited from earlier work
[4] = 100 mg/kg oral once a day, P < 0.01
[5] = 300 mg/kg oral once a day, P < 0.01
[6] = 30 mg/kg oral once a day, 14 days
[7] = 100 mg/kg oral once a day, 14 days
[8] = 100 mg/kg oral once a day, 14 days, P < 0.01
[9] = 300 mg/kg oral once a day, 14 days
[10] = 300 mg/kg oral once a day, 14 days, P < 0.01

CC1(C)O[C@@H]2[C@@H](CO[C@@]3(COS(N)(=O)=O)OC(C)(C)O[C@@H]23)O1 [Topiramate, 2,3:4,5-bis-O-(1-methylethylidene)-β-D-fructopyranose sulfamate]
Plasma Glucose % Change ([1]; 10 mg/kg oral once a day): −27.4% | Plasma Triglycerides % Change ([1]; 10 mg/kg oral once a day): −18.9% | Change in Body Weight ([1]; 10 mg/kg oral once a day): 1.7 ± 0.9 g | Plasma Triglycerides Plasma Conc. ([1]; 10 mg/kg oral once a day): 277 ± 30 mg/dL | Plasma Glucose Plasma Conc. ([1]; 10 mg/kg oral once a day, P < 0.05): 382 ± 46 mg/dL | decrease in blood glucose vs. control ([1]; 10 mg/kg/day, P<0.05): 27% | Plasma Glucose % Change ([1]; 30 mg/kg oral once a day): −34.6% | Plasma Triglycerides % Change ([1]; 30 mg/kg oral once a day): −11.2% | Change in Body Weight ([1]; 30 mg/kg oral once a day): 2.6 ± 1.0 g | Plasma Triglycerides Plasma Conc. ([1]; 30 mg/kg oral once a day): 303 ± 29 mg/dL | Plasma Glucose Plasma Conc. ([1]; 30 mg/kg oral once a day, P < 0.01): 344 ± 31 mg/dL | decrease in blood glucose vs. control ([1]; 30 mg/kg/day, P<0.01): 35% | Plasma Glucose % Change ([1]; 100 mg/kg oral once a day): −36.6% | Plasma Triglycerides % Change ([1]; 100 mg/kg oral once a day): −33.7% | Change in Body Weight ([1]; 100 mg/kg oral once a day): 1.5 ± 0.7 g | Plasma Glucose Plasma Conc. [1, 4]: 333 ± 42 mg/dL | Plasma Triglycerides Plasma Conc. [1, 4]: 227 ± 15 mg/dL | decrease in blood glucose vs. control ([1]; 100 mg/kg/day, P<0.01): 37% | Plasma Glucose % Change ([1]; 300 mg/kg oral once a day): −60.5% | Plasma Triglycerides % Change ([1]; 300 mg/kg oral once a day): −41.7% | Change in Body Weight ([1]; 300 mg/kg oral once a day): 0.7 ± 2.4 g | Plasma Glucose Plasma Conc. [1, 5]: 207 ± 41 mg/dL | Plasma Triglycerides Plasma Conc. [1, 5]: 199 ± 16 mg/dL | decrease in blood glucose vs. control ([1]; 300 mg/kg/day, P<0.01): 61% | decrease in plasma triglyceride levels versus diabetic controls ([1]; 100 and 300 mg/kd/day, P<0.01): up to 42% | Plasma Glucose % Change from Diabetic Control [2, 6]: −24.9% | Plasma Glucose % of Diabetic Control [2, 6]: 75.1% | Plasma Triglyceride % Change from Diabetic Control [2, 6]: −20.4% | Plasma Triglyceride % of Diabetic Control [2, 6]: 79.6% | Body Weight Change [2, 6]: +95.5 ± 7.2 Gms | Plasma Glucose Levels Plasma Conc. ([2]; 30 mg/kg oral once a day, 14 days, P < 0.01): 247.4 ± 17.8 mg/dL | Plasma Triglyceride Levels Plasma Conc. ([2]; 30 mg/kg oral once a day, 14 days, P < 0.05): 482.4 ± 10.5 mg/dL | body weight change accompanying the reduction in blood glucose ([2]; 30 mg/kg/day): without significant body weight change | decrease in plasma triglyceride levels ([2]; 30 mg/kg/day, P<0.05): 20% | Plasma Glucose % Change from Diabetic Control [2, 7]: −47.5% | Plasma Glucose % of Diabetic Control [2, 7]: 52.5% | Plasma Triglyceride % Change from Diabetic Control [2, 7]: −17.7% | Plasma Triglyceride % of Diabetic Control [2, 7]: 82.3% | Plasma Triglyceride Levels Plasma Conc. [2, 7]: 498.6 ± 58.8 mg/dL | Body Weight Change [2, 8]: +75.7 ± 2.7 (P < 0.01) Gms | Plasma Glucose Levels Plasma Conc. [2, 8]: 170.3 ± 14.7 mg/dL | Plasma Glucose % Change from Diabetic Control [2, 9]: −49.5% | Plasma Glucose % of Diabetic Control [2, 9]: 50.5% | Plasma Triglyceride % Change from Diabetic Control [2, 9]: −30.2% | Plasma Triglyceride % of Diabetic Control [2, 9]: 69.8% | Body Weight Change [2, 10]: +64.4 ± 6.0 (P < 0.01) Gms | Plasma Glucose Levels Plasma Conc. [2, 10]: 166.4 ± 11.1 mg/dL | Plasma Triglyceride Levels Plasma Conc. [2, 10]: 423.0 ± 33.6 mg/dL | decrease in plasma triglyceride levels ([2]; 300 mg/kg/day, P<0.01): 30% | decrease in blood glucose levels ([2]; 30 to 300 mg/kg, 14 days, P<0.01): 25–50% | efficacy as adjunctive therapy or monotherapy in simple and complex partial seizures and secondarily generalized seizures (human epilepsy): effective | seizure block [3]: effectively block seizures
